# Experimental data reported in US12612386B2, “Heteroaryl-triazole compounds as pesticides” (Bayer Aktiengesellschaft, priority 2020, dated 2026).
# Tested on: adult mosquitoes Aedes aegypti strain MONHEIM
# Test: Aedes aegypti test (AEDSAE surface treatment & contact assay)
# Format: in vivo
# Conditions: surface concentration 4 mg/m^2, 30 min exposure, 24 hours after contact, read-out: efficacy (mortality)
# Description: Aedes aegypti Test (AEDSAE Surface Treatment & Contact Assay)
# (§1) Solvent: Aceton+2000 ppm rapeseed oil methyl ester (RME)
# (§2) This solution is pipetted onto a glazed tile and after evaporation of the acetone, adult mosquitoes of the species Aedes aegypti strain MONHEIM are placed onto the dried surface. The exposure time is 30 minutes. Mortality in percent (%) is determined 24 hours after contact of the insects to the treated surface. 100% mortality means that all tested insects are dead, whereas 0% means that no insect died.
row,Compound,mortality at 4 mg/m2
1,C[C@H](NC(=O)c1cc(OC(F)(F)F)cc(OC(F)(F)F)c1)c1ncnn1-c1cc(C(N)=O)ncn1 [I-102],80 to 100%

# Same assay, conditions: surface concentration 20 mg/m^2, 30 min exposure, 24 hours after contact, read-out: efficacy (mortality)
row,Compound,mortality at 20 mg/m2
1,C[C@H](NC(=O)c1cc(OC(F)(F)F)cc(OC(F)(F)F)c1)c1ncnn1-c1cc(C(N)=O)ncn1 [I-102],80 to 100%

# Tested on: green peach aphid (Myzus persicae)
# Test: Myzus persicae spray test (MYZUPE)
# Format: in vivo
# Conditions: 120 h, 100 g/ha, after 5 days
# In short: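 Percent aphid kill, with 0% meaning none killed, was read 5 days after spraying. The preparation (acetone–DMF solvent, water with 1000 ppm emulsifier) was applied to Brassica pekinensis leaf disks carrying mixed-instar green peach aphids.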
row,Compound,mortality at 100 g/ha
1,C[C@H](NC(=O)c1cc(OC(F)(F)F)cc(OC(F)(F)F)c1)c1ncnn1-c1cc(C(N)=O)ncn1 [I-102],100%

# Tested on: larvae of the southern green stink bug (Nezara viridula)
# Test: whole plant or invertebrate
# Format: in vivo
# Conditions: 96 h
# In short: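 Percent mortality of southern green stink bug larvae was recorded at day 4, with 100% meaning all dead. The larvae were placed on barley sprayed with the test solution. That solution was prepared from acetone/dimethylformamide concentrate diluted in emulsifier-containing water (1000 ppm).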
row,Compound,mortality at 500 g/ha
1,C[C@H](NC(=O)c1cc(OC(F)(F)F)cc(OC(F)(F)F)c1)c1ncnn1-c1cc(C(N)=O)ncn1 [I-102],100%

# Tested on: cattle tick larvae (Rhipicephalus microplus), strain Parkhurst, resistant against synthetic pyrethroids
# Test: Rhipicephalus (Boophilus) microplus in-vitro contact test, larval cattle tick
# Format: in vivo
# Conditions: 5 μg/cm^2 (=500 g/ha), after 48 hours
# In short: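 Larvae exposed by contact to a dried acetone film on glass; a 900 ppm solution yields 5 μg/cm^2. Scoring after 48 h at 27° C. counts dead plus moribund larvae as efficacy.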
row,Compound,efficacy (larvae dead or moribund)
1,C[C@H](NC(=O)c1cc(OC(F)(F)F)cc(OC(F)(F)F)c1)c1ncnn1-c1cc(C(N)=O)ncn1 [I-102],100%

# Tested on: adult mosquitoes Culex quinquefasciatus strain P00
# Test: Culex quinquefasciatus test (CULXFA surface treatment & contact assay)
# Format: in vivo
# Conditions: surface concentration 4 mg/m^2, 30 min exposure, 24 hours after contact, read-out: efficacy (mortality)
# Description: Culex quinquefasciatus Test (CULXFA Surface Treatment & Contact Assay)
# as §1
# as §2, with “Culex quinquefasciatus” for “Aedes aegypti”, “P00” for “MONHEIM”
row,Compound,mortality at 4 mg/m2
1,C[C@H](NC(=O)c1cc(OC(F)(F)F)cc(OC(F)(F)F)c1)c1ncnn1-c1cc(C(N)=O)ncn1 [I-102],80 to 100%

# Same assay, conditions: surface concentration 20 mg/m^2, 30 min exposure, 24 hours after contact, read-out: efficacy (mortality)
row,Compound,mortality at 20 mg/m2
1,C[C@H](NC(=O)c1cc(OC(F)(F)F)cc(OC(F)(F)F)c1)c1ncnn1-c1cc(C(N)=O)ncn1 [I-102],80 to 100%

# Tested on: brown planthopper (Nilaparvata lugens)
# Test: Nilaparvata lugens spray test
# Format: in vivo
# Conditions: 96 h
# In short: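 Rice plants (Oryza sativa) sprayed with compound formulated in acetone/DMF with alkylarylpolyglycol ether emulsifier (1000 ppm in diluting water), then infested with planthoppers. Mortality (%) scored after 4 days; 100% = all insects killed, 0% = none killed.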
row,Compound,mortality at 500 g/ha
1,C[C@H](NC(=O)c1cc(OC(F)(F)F)cc(OC(F)(F)F)c1)c1ncnn1-c1cc(C(N)=O)ncn1 [I-102],90%

# Tested on: fall armyworm larvae (Spodoptera frugiperda)
# Test: whole plant or invertebrate
# Format: in vivo
# Conditions: 168 h
# In short: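 Percent kill of Spodoptera frugiperda caterpillars, read 7 days after infestation of dried, spray-treated Zea mays leaf pieces. Spray preparation: compound in acetone plus dimethylformamide, diluted with emulsifier-containing water.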
row,Compound,mortality at 100 g/ha
1,C[C@H](NC(=O)c1cc(OC(F)(F)F)cc(OC(F)(F)F)c1)c1ncnn1-c1cc(C(N)=O)ncn1 [I-102],100%

# Same assay, conditions: 168 h, SPODFR, 20 g ai/ha, 7 dat (Table 3), read-out: % Efficacy
row,Compound,Emax at 20 g/ha
1,"C[C@H](NC(=O)c1cc(Cl)cc(S(C)(=O)=O)c1)c1ncnn1-c1ccncn1 [I-146 Known from WO 2019197468, reference compound]",33%
2,"C[C@H](NC(=O)c1cc(Cl)cc(S(C)(=O)=O)c1)c1ncnn1-c1cc(C#N)ccn1 [I-148 Known from WO 2019197468, reference compound]",33%

# Tested on: adult flies Musca domestica strain WHO-N
# Test: Musca domestica test (MUSCDO surface treatment & contact assay)
# Format: in vivo
# Conditions: surface concentration 4 mg/m^2, 30 min exposure, 24 hours after contact, read-out: efficacy (mortality)
# Description: Musca domestica Test (MUSCDO Surface Treatment & Contact Assay)
# as §1
# as §2, with “flies” for “mosquitoes”, “Musca domestica” for “Aedes aegypti”, “WHO-N” for “MONHEIM”
row,Compound,mortality at 4 mg/m2
1,C[C@H](NC(=O)c1cc(OC(F)(F)F)cc(OC(F)(F)F)c1)c1ncnn1-c1cc(C(N)=O)ncn1 [I-102],80 to 100%

# Same assay, conditions: surface concentration 20 mg/m^2, 30 min exposure, 24 hours after contact, read-out: efficacy (mortality)
row,Compound,mortality at 20 mg/m2
1,C[C@H](NC(=O)c1cc(OC(F)(F)F)cc(OC(F)(F)F)c1)c1ncnn1-c1cc(C(N)=O)ncn1 [I-102],80 to 100%

# Tested on: adult animals Blattella germanica strain PAULINIA
# Test: Blattella germanica test (BLTTGE surface treatment & contact assay)
# Format: in vivo
# Conditions: surface concentration 4 mg/m^2, 30 min exposure, 24 hours after contact, read-out: efficacy (mortality)
# Description: Blattella germanica Test (BLTTGE Surface Treatment & Contact Assay)
# as §1
# In order to produce a sufficient, active ingredient containing solution it is necessary to solve the test compound in the solvent-mix (acetone at 2 mg/ml/RME 2000 ppm). This solution is pipetted onto a glazed tile and after evaporation of the acetone, adult animals of the species Blattella germanica strain PAULINIA are placed onto the dried surface. The exposure time is 30 minutes.
# Mortality in percent (%) is determined 24 hours after contact of the insects to the treated surface. 100% mortality means that all tested insects are dead, whereas 0% means that no insect died.
row,Compound,mortality at 4 mg/m2
1,C[C@H](NC(=O)c1cc(OC(F)(F)F)cc(OC(F)(F)F)c1)c1ncnn1-c1cc(C(N)=O)ncn1 [I-102],80 to 100%

# Same assay, conditions: surface concentration 20 mg/m^2, 30 min exposure, 24 hours after contact, read-out: efficacy (mortality)
row,Compound,mortality at 20 mg/m2
1,C[C@H](NC(=O)c1cc(OC(F)(F)F)cc(OC(F)(F)F)c1)c1ncnn1-c1cc(C(N)=O)ncn1 [I-102],80 to 100%

# Tested on: adult cat fleas (Ctenocephalides felis)
# Test: Ctenocephalides felis in-vitro contact test, adult cat flea
# Format: in vivo
# Conditions: 5 μg/cm^2 (=500 g/ha), after 48 hours
# In short: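 After 48 h of room-temperature exposure in tubes whose walls carried dried compound residue (5 μg/cm^2, from 900 ppm acetone solution), adult cat fleas (5-10 per tube) were heat-challenged at 45-50° C up to 5 min. Fleas unable to climb away were counted dead or moribund, expressed as % efficacy.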
row,Compound,efficacy (fleas dead or moribund)
1,C[C@H](NC(=O)c1cc(OC(F)(F)F)cc(OC(F)(F)F)c1)c1ncnn1-c1cc(C(N)=O)ncn1 [I-102],100%

# Tested on: larvae of the banded cucumber beetle (Diabrotica balteata)
# Test: Diabrotica balteata spray test
# Format: in vivo
# Conditions: 168 h, 100 g/ha (=32 μg/well), after 7 days, read-out: efficacy (seedling growth)
# In short: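 Efficacy is seedling survival after 7 days, where 0% means no seedlings grew and 100% means growth equal to untreated, uninfested controls. Wheat seedlings, germinated on agar for 1 day, were sprayed with the aqueous emulsifier dilution (acetone/DMF solvent) and then exposed to 10–20 banded cucumber beetle larvae.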
row,Compound,"pest or weed control at 32 µg/disc, 100 g/ha"
1,C[C@H](NC(=O)c1cc(OC(F)(F)F)cc(OC(F)(F)F)c1)c1ncnn1-c1cc(C(N)=O)ncn1 [I-102],100%

# Tested on: green peach aphid (Myzus persicae)
# Test: whole plant or invertebrate
# Format: in vivo
# Conditions: 120 h, MYZUPE oral, 0.16 ppm, 5 dat (Table 3), read-out: % Efficacy
# Description: Solvent: 100 parts by weight acetone
# To produce a suitable preparation of active compound, 1 part by weight of active compound is mixed with the stated amount of solvent, and the concentrate is diluted with water to the desired concentration.
# 50 μL compound solution is filled in microtiter plates and 150 μL IPL41 insect medium (33%+15% sugar) is added to obtain a total volume of 200 μL per well. Afterwards the plates are sealed with parafilm through which a mixed population of the green peach aphid (Myzus persicae) can suck on the compound preparation.
# After 5 days mortality in % is determined. 100% means all aphids have been killed and 0% means none of the aphids have been killed.
# Myzus persicae—Oral Test (MYZUPE Oral)
row,Compound,Emax at 0.16 ppm
1,"C[C@H](NC(=O)c1cc(Cl)cc(S(C)(=O)=O)c1)c1ncnn1-c1ccncn1 [I-146 Known from WO 2019197468, reference compound]",0%
2,"C[C@H](NC(=O)c1cc(Cl)cc(S(C)(=O)=O)c1)c1ncnn1-c1cc(C#N)ccn1 [I-148 Known from WO 2019197468, reference compound]",0%

# Tested on: adult brown dog ticks (Rhipicephalus sanguineus)
# Test: Rhipicephalus sanguineus in-vitro contact test, adult brown dog ticks
# Format: in vivo
# Conditions: 48 h, read-out: efficacy (ticks dead or moribund)
# In short: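 Contact exposure: dried compound film inside glass tubes, dose 5 μg/cm^2 at 900 ppm, 5-10 adults per tube at room temperature. Scored at 48 h via a heat-escape test on a 45-50° C plate for up to 5 min.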
row,Compound,"pest or weed control at 5 µg/cm2, 500 g/ha"
1,C[C@H](NC(=O)c1cc(OC(F)(F)F)cc(OC(F)(F)F)c1)c1ncnn1-c1cc(C(N)=O)ncn1 [I-102],80%
